In PubChem BioAssay AID1963856 (Molecular Pharmacology Branch, DTP, NCI, 2024):

System: LG0567-F671-PDC KRAS tumor spheroid viability
Experiment: Anticancer human tumor LG0567-F671-PDC patient-derived lung adenocarcinoma cell line growth inhibition [KRAS2]
Conditions: spheroids with HUVEC and MSC; for IC50: curve of first compound; for viability, T/C: stronger effect = lower value
Procedure, shortened: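 Combination screen of spheroid viability in tumor-cell co-cultures with endothelial (HUVEC) and mesenchymal stem cell stroma. Each agent was tested in half-log dilutions, topping at clinical Cmax or at 10 microM without a known Cmax.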

[1] = second compound 0.0316 µM, first compound 0.0316 µM
[2] = second compound 0.0316 µM, first compound 0.1 µM
[3] = second compound 0.0316 µM, first compound 0.316 µM
[4] = second compound 0.0316 µM, first compound 1 µM
[5] = second compound 0.0316 µM, first compound 3.16 µM
[6] = second compound 0.0316 µM, first compound 10 µM
[7] = second compound 0.1 µM, first compound 0.0316 µM
[8] = second compound 0.1 µM, first compound 0.1 µM
[9] = second compound 0.1 µM, first compound 0.316 µM
[10] = second compound 0.1 µM, first compound 1 µM
[11] = second compound 0.1 µM, first compound 3.16 µM
[12] = second compound 0.1 µM, first compound 10 µM
[13] = second compound 0.316 µM, first compound 0.0316 µM
[14] = second compound 0.316 µM, first compound 0.1 µM
[15] = second compound 0.316 µM, first compound 0.316 µM
[16] = second compound 0.316 µM, first compound 1 µM
[17] = second compound 0.316 µM, first compound 3.16 µM
[18] = second compound 0.316 µM, first compound 10 µM
[19] = second compound 1 µM, first compound 0.0316 µM
[20] = second compound 1 µM, first compound 0.1 µM
[21] = second compound 1 µM, first compound 0.316 µM
[22] = second compound 1 µM, first compound 1 µM
[23] = second compound 1 µM, first compound 3.16 µM
[24] = second compound 1 µM, first compound 10 µM
[25] = second compound 3.16 µM, first compound 0.0316 µM
[26] = second compound 3.16 µM, first compound 0.1 µM
[27] = second compound 3.16 µM, first compound 0.316 µM
[28] = second compound 3.16 µM, first compound 1 µM
[29] = second compound 3.16 µM, first compound 3.16 µM
[30] = second compound 3.16 µM, first compound 10 µM
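Further: drug exposure lasted seven days after spheroids formed for three days.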
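Wherever viability, T/C is given: 100% = DMSO vehicle control viability.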

COc1cc(Nc2ncc3c(n2)-c2ccc(Cl)cc2C(c2c(F)cccc2OC)=NC3)ccc1C(=O)O + C=CC(=O)N1CCN(c2nc(OCC3CCCN3C)nc3c2CCN(c2cccc4cccc(C)c24)C3)CC1CC#N
IC50 (second compound 0.0316 µM): < 31.6 nM | IC50 (second compound 0.1 µM): < 31.6 nM | IC50 (second compound 0.316 µM): < 31.6 nM | IC50 (second compound 1 µM): < 31.6 nM | IC50 (second compound 3.16 µM): < 31.6 nM | viability, T/C [1]: 32.8% | viability, T/C [2]: 20.1% | viability, T/C [3]: 20.5% | viability, T/C [4]: 20.2% | viability, T/C [5]: 18.7% | viability, T/C [6]: 16.3% | viability, T/C [7]: 25.7% | viability, T/C [8]: 22.9% | viability, T/C [9]: 17.6% | viability, T/C [10]: 19.2% | viability, T/C [11]: 21.8% | viability, T/C [12]: 15% | viability, T/C [13]: 29.2% | viability, T/C [14]: 22.6% | viability, T/C [15]: 20.3% | viability, T/C [16]: 19.7% | viability, T/C [17]: 23.3% | viability, T/C [18]: 16.9% | viability, T/C [19]: 27.8% | viability, T/C [20]: 26.4% | viability, T/C [21]: 24.6% | viability, T/C [22]: 25.4% | viability, T/C [23]: 26.7% | viability, T/C [24]: 22.9% | viability, T/C [25]: 28.7% | viability, T/C [26]: 30.4% | viability, T/C [27]: 30.3% | viability, T/C [28]: 23.7% | viability, T/C [29]: 17% | viability, T/C [30]: 1.09%

Cn1ncnc1[C@H]1c2n[nH]c(=O)c3cc(F)cc(c23)N[C@@H]1c1ccc(F)cc1 + CNCc1ccccc1-c1csc(C(C)Nc2nc(C)nc3cc(OC)c(OC)cc23)c1
IC50 (second compound 0.1 µM): > 100 nM | IC50 (second compound 0.316 µM): > 100 nM | IC50 (second compound 1 µM): 13.1 nM | IC50 (second compound 3.16 µM): < 0.316 nM | IC50 (second compound 10 µM): < 0.316 nM | viability, T/C (second compound 0.1 µM, first compound 0.000316 µM): 79.2% | viability, T/C (second compound 0.1 µM, first compound 0.001 µM): 82% | viability, T/C (second compound 0.1 µM, first compound 0.00316 µM): 73.4% | viability, T/C (second compound 0.1 µM, first compound 0.01 µM): 70% | viability, T/C [7]: 71.4% | viability, T/C [8]: 74.5% | viability, T/C (second compound 0.316 µM, first compound 0.000316 µM): 64.8% | viability, T/C (second compound 0.316 µM, first compound 0.001 µM): 64.9% | viability, T/C (second compound 0.316 µM, first compound 0.00316 µM): 61.1% | viability, T/C (second compound 0.316 µM, first compound 0.01 µM): 57.6% | viability, T/C [13]: 58% | viability, T/C [14]: 60.6% | viability, T/C (second compound 1 µM, first compound 0.000316 µM): 46.2% | viability, T/C (second compound 1 µM, first compound 0.001 µM): 54.4% | viability, T/C (second compound 1 µM, first compound 0.00316 µM): 53.7% | viability, T/C (second compound 1 µM, first compound 0.01 µM): 55.8% | viability, T/C [19]: 42.2% | viability, T/C [20]: 46.1% | viability, T/C (second compound 3.16 µM, first compound 0.000316 µM): 0.22% | viability, T/C (second compound 3.16 µM, first compound 0.001 µM): 0.9% | viability, T/C (second compound 3.16 µM, first compound 0.00316 µM): 0.17% | viability, T/C (second compound 3.16 µM, first compound 0.01 µM): 0.13% | viability, T/C [25]: 0.2% | viability, T/C [26]: 0.36% | viability, T/C (second compound 10 µM, first compound 0.000316 µM): 0.39% | viability, T/C (second compound 10 µM, first compound 0.001 µM): 0.63% | viability, T/C (second compound 10 µM, first compound 0.00316 µM): 0.39% | viability, T/C (second compound 10 µM, first compound 0.01 µM): 0.11% | viability, T/C (second compound 10 µM, first compound 0.0316 µM): 1.32% | viability, T/C (second compound 10 µM, first compound 0.1 µM): 0.63%

Cn1nccc1Nc1nccc(-c2cc3c(s2)C(C)(C)N(CCN2CCOCC2)C3=O)n1 + C=CC(=O)N1CCN(c2nc(OCC3CCCN3C)nc3c2CCN(c2cccc4cccc(C)c24)C3)CC1CC#N
IC50 (second compound 0.0316 µM): < 31.6 nM | IC50 (second compound 0.1 µM): < 31.6 nM | IC50 (second compound 0.316 µM): < 31.6 nM | IC50 (second compound 1 µM): < 31.6 nM | IC50 (second compound 3.16 µM): < 31.6 nM | viability, T/C [1]: 34.5% | viability, T/C [2]: 28.7% | viability, T/C [3]: 39.7% | viability, T/C [4]: 19.2% | viability, T/C [5]: 19.9% | viability, T/C [6]: 19.7% | viability, T/C [7]: 26.8% | viability, T/C [8]: 31.8% | viability, T/C [9]: 28% | viability, T/C [10]: 23.3% | viability, T/C [11]: 17.8% | viability, T/C [12]: 21.1% | viability, T/C [13]: 33.2% | viability, T/C [14]: 25.8% | viability, T/C [15]: 21.2% | viability, T/C [16]: 35.5% | viability, T/C [17]: 16.8% | viability, T/C [18]: 19.1% | viability, T/C [19]: 29.6% | viability, T/C [20]: 26.9% | viability, T/C [21]: 33.1% | viability, T/C [22]: 26.5% | viability, T/C [23]: 15.3% | viability, T/C [24]: 19.4% | viability, T/C [25]: 29.3% | viability, T/C [26]: 29.1% | viability, T/C [27]: 28.1% | viability, T/C [28]: 23.2% | viability, T/C [29]: 21.7% | viability, T/C [30]: 24.4%
